From US6555091B1, “Polypeptide capable of reacting with antibodies of patients suffering from multiple sclerosis and uses” (Bio Merieux, priority 1997, dated 2003)
No end group written: not given here.

Key:
Assay type in all cases: binding, human
[1] = tested on: IgM of cerebrospinal fluids from patients suffering from MS; assay: ELISA of pentadecapeptide phage clones, IgM response of CSFs (FIG. 6); settings: CSF 4 and CSF 7 (MS), CSF 12 (other neurological disease), CSFs diluted 1/10
From the text: FIG. 6 represents the IgM response of the CSFs with respect to phages expressing the sequences SEQ ID NO: 14 (EPM), SEQ ID NO: 13 (FCP), SEQ ID NO: 16 (SRG), SEQ ID NO: 17 (QSP) , with respect to the wild-type phage (without an expressed sequence) and another nonspecific sequence (RTG); this representation is given by a histogram grouping together the results expressed as optical density values obtained for each CSF reduced by those obtained with PBS buffer controls in place of the phages; the immunoreactivity of the phage clones is tested in ELISA as described in Example 2, with respect to CSFs diluted 1/10; CSF 12 corresponds to a patient suffering from a neurological disease other than MS; CSF 4 and CSF 7 correspond to two patients suffering from MS.
In a first instance, 100 μl of anti-M13 phage antibodies diluted 1/500 in 0.1M NaHCO3, pH 8.6 (marketed by Prinn, Inc. Boulder, Colo. 80303) are bound overnight in the wells of Nunc maxisorb (trade name) microtiter plates. […] The optical density is measured on a BioMérieux plate reader at 492 nm. The IgM response is determined by addition of 100 μl of biotinylated anti-IgM conjugate diluted 1/4000 (Biomérieux monoclonal antibody) followed by the addition, after the washes, of the streptavidin-peroxidase conjugate diluted 1/10,000. […]

[2] = tested on: IgG of CSF from patients suffering from MS; assay: ELISA of polypeptides, IgG response of CSFs diluted 1/10 (Table 5, FIGS. 7A and 7B); set-up: key to IgG recognition by CSF: positive (+) if the OD value at 492 nm for a 1/10 dilution of the CSF is greater than the mean values obtained for the CSFs from the ND patients+3 times the standard deviation; settings: for number of positive (+) CSFs: total line, 15 MS patients, CSF 1/10
From the text: FIGS. 7A and 7B represents the IgG response of the polypeptides whose peptide sequence consists of, respectively, SEQ ID NO: 13, SEQ ID NO: 12, SEQ ID NO: 14, SEQ ID NO: 16, SEQ ID NO: 19 and SEQ ID NO: 15, with respect to CSFs diluted 1/10; the results assembled in the appended Table 5 are expressed by the difference in the optical density values obtained for the polypeptide tested and the values obtained for the HIV polypeptide used as control; ND corresponds to patients suffering from a neurological disease other than MS, and MS* corresponds to patients suffering from MS.
Table 5, illustrated in FIGS. 7A and 7B, collates the results on the specific recognition of CSF from patients suffering from MS for 6 polypeptides of the invention, SEQ ID NO: 13, SEQ ID NO: 12, SEQ ID NO: 14, SEQ ID NO: 16, SEQ ID NO: 19 and SEQ ID NO: 15.
For each polypeptide tested, identified in Table 5 by its peptide sequence, the CSFs from patients 1-22 suffering from Ms are determined as positive (+) if the OD value at 492 nm for a 1/10 dilution of the CSF is greater than the mean values obtained for the CSFs from the ND patients+3 times the standard deviation.

[3] = tested on: IgG of pool of positive sera (MS remission sera); assay: ELISA of pentadecapeptide phage clones, pool of positive sera versus pool of negative sera; settings: phage clones carrying the sequence; 1/200 serum dilution; pool of positive sera compared with pool of negative sera
Procedure: In a first instance, 100 μl of anti-M13 phage antibodies diluted 1/500 in 0.1M NaHCO3, pH 8.6 (marketed by Prinn, Inc. Boulder, Colo. 80303) are bound overnight in the wells of Nunc maxisorb (trade name) microtiter plates. After three washes with TBS/0.05% Tween, the plates are passivated for 1 hour at 37° C. with 250 μl of TBS containing 10% goat serum and again washed three times with the same buffer. 100 μl of various purified phage clones are then incubated for 2 hours at 37° C. in the wells. […] After four washes in TBS/0.05% Tween, 100 μl of peroxidase-labeled anti-human IgG conjugate diluted 1/10,000 (marketed by Jackson Immuno Research Laboratories Inc.) are added before an incubation for one hour at 37° C. […] The staining reaction is interrupted by the addition of 50 μl of 1.8N sulfuric acid. The optical density is measured on a BioMérieux plate reader at 492 nm. The IgM response is determined by addition of 100 μl of biotinylated anti-IgM conjugate diluted 1/4000 (Biomérieux monoclonal antibody) followed by the addition, after the washes, of the streptavidin-peroxidase conjugate diluted 1/10,000.
A library of pentadecapeptides carried on 300 copies of the phage protein VIII was constructed on the same principle as the hexapeptide library using the vector f88-4 according to the work by Greewood et al. (J. Biol. Mol. 1991). […]

## EPMTPHQWITLYRSY (MSRV) [SEQ ID NO: 14]
[1]
  recognition of the phage clone by CSFs: recognized only by CSF 7
[2]; CSF of MS patient 1, 1/10
  IgG recognition by CSF: +
[2]; CSF of MS patient 2, 1/10
  IgG recognition by CSF: +
[2]; CSF of MS patient 3, 1/10
  IgG recognition by CSF: +
[2]; CSF of MS patient 5, 1/10
  IgG recognition by CSF: +
[2]; CSF of MS patient 7, 1/10
  IgG recognition by CSF: +
[2]; CSF of MS patient 10, 1/10
  IgG recognition by CSF: +
[2]; CSF of MS patient 18, 1/10
  IgG recognition by CSF: +
[2]; CSF of MS patient 21, 1/10
  IgG recognition by CSF: +
[2]
  number of positive (+) CSFs: 8+

## FCPPILPYSAWCPVP (MSRV) [SEQ ID NO: 13]
[1]
  recognition of the phage clone by CSFs: recognized specifically by CSFs 7 and 4
[2]; CSF of MS patient 1, 1/10
  IgG recognition by CSF: +
[2]; CSF of MS patient 2, 1/10
  IgG recognition by CSF: +
[2]; CSF of MS patient 3, 1/10
  IgG recognition by CSF: +
[2]; CSF of MS patient 5, 1/10
  IgG recognition by CSF: +
[2]; CSF of MS patient 7, 1/10
  IgG recognition by CSF: +
[2]; CSF of MS patient 8, 1/10
  IgG recognition by CSF: +
[2]; CSF of MS patient 10, 1/10
  IgG recognition by CSF: +
[2]; CSF of MS patient 18, 1/10
  IgG recognition by CSF: +
[2]; CSF of MS patient 20, 1/10
  IgG recognition by CSF: +
[2]; CSF of MS patient 21, 1/10
  IgG recognition by CSF: +
[2]
  number of positive (+) CSFs: 10+

## NACYVDLFLGASVCP (cysteine pairing not given here) [SEQ ID NO: 10, pentadecapeptide carried by phage clones]
[3]
  average positive IgG response: 0.069

## SSAKSHCYAFCSGLP (cysteine pairing not given here) [SEQ ID NO: 11, pentadecapeptide carried by phage clones]
[3]
  average positive IgG response: 0.248
